Peptide text beside a SMILES is read from it. * marks the point of attachment. Acetyl(5-fluorouracil-1-yl) = O=C(Cn1cc(F)c(=O)[nH]c1=O)*; Methacryloyl = C=C(C)C(=O)*
Columns and labels:
NIH/3T3 fibroblasts [1] = assay: CCK-8 cell viability / cytotoxicity assay; type: cell-based; conditions: for inhibitory effect on fibroblasts compared among 5-FuA, 5-FuA-Pep-MA and 5-FuA-Pro-Pro: all the concentrations (80, 125, 250 μM), 48 h, CCK-8, one-way ANOVA, n = 4
Method: In vitro cell viability and cytotoxicity. The CCK-8 assays were used to detect the cytotoxicity of
5-Fu and 5-Fu derivatives towards NIH/3T3 fibroblasts. Briefly, NIH/3T3 fibroblasts were cultured
with DMEM medium (containing 10% FBS and 1% penicillin-streptomycin) at 37 °C with 5% CO2.
Then, NIH/3T3 fibroblasts were seeded in 96-well plates at a density of 5 × 10^3 cells/well and
cultured for 12 h to adhere to the bottom of the plates. Subsequently, the medium was replaced with
concentrations of 80, 125, 250 μM, respectively. The cells treated with the neat medium were taken
as the control group. After 48 h of incubation, the CCK-8 kit was added, and the absorption of each
well at 450 nm was measured with a microplate reader (Multiskan MK3, ThermoFisher Scientific,
USA) to calculate the cell viability.

rabbit ear HS model = assay: In vivo HS inhibition study, scar elevation index from H&E sections; design: species or system rabbits (Oryctolagus cuniculus); conditions: after the 3rd administration (once a week for 3 weeks), before treatment 3.5 in drug-loaded MNs group, untreated HS group 3.3, 5-Fu injection 120 μg per lesion, mean of n = 3
Method: We investigated therapeutic effects of separating MNs on HS model in rabbit ears. Among the 15 rabbits, three rabbits were used as the control group (normal skin, NS), and the other 12 rabbits were used to establish HS model. The rabbit ear HS model was established according to a standard method, i.e., 4 HS lesions on each ear and 96 in total. Briefly, the rabbits were anesthetized with sodium pentobarbital (30 mg/kg) and operated under sterile conditions. Then, 4 round-shaped wounds of 7 mm diameter were created on the ventral surface of each ear, which were kept away from the central auricular artery and the periauricular vein. The epidermis, dermis, and perichondrium in each wound was removed thoroughly. After the procedures, the wounds were washed with 0.1% benzalkonium chloride solution to sterilize. In the following 2 weeks, after the rabbits were anesthetized, the newly formed wound tissues were removed to accelerate the formation of HS. […]
The three rabbits without treatment were taken as the control group (group 1, NS). […] The macroscopic images were recorded on the 21st day (before administration), the 29th day (1 week after the 1st administration), the 36th day (1 week after the 2nd administration), the 43rd day (1 week after the 3rd administration) and the 50th day (1 week follow-up). […]

[2] = design: method as in earlier work; conditions: in blood circulation; ref Oncol. Lett. 2018, 15, 7175; Cancer Res. 1978, 38, 3479; Cancer Biol. Ther., 2012, 13, 1407; Cancer Chemother. Pharmacol. 2013, 71, 351; Biomater. Sci. 2017, 5, 502; cited from earlier work
Source text: Response: Thanks for the questions. […] Corticosteroids could reduce inflammation response, promote vasoconstrictive effect, and inhibit fibroblast proliferation to treat HS.

NIH/3T3 fibroblasts [3] = assay: In vitro wound scratch (migration) assay; type: cell-based; conditions: 80 μM drug with 0.5% FBS, after 48 h of incubation, Image J, n = 3, control almost complete closure within 48 h
Method: In vitro wound scratch assay. Wound scratch assays were used to evaluate the migration of
NIH/3T3 fibroblasts were seeded into 24-well plates at a density of 2 × 10^4 cells/well for 8 h. Then,
the sterile pipette tips were used to draw the scratch in the center of the wells, and the cells scratched
off were washed away with PBS for 3 times. 500 μL of drug solutions consisting of 80 μM of 5-

[4] = test system: human hypertrophic scar fibroblast (HSFb); assay: Intracellular ROS scavenging (ROS assay kit, DCFH-DA, CLSM); type: cell-based; conditions: HSFb stimulated with ROSup, 5-FuA-Pep-MA 50, 100 and 200 μM, 12 h, with increased concentration
Method: The migration of cells was imaged with an inversion microscope at 0, 24 and 48 h. The area of the scratch was analyzed by Image J, and the wound healing rate (WHR) was calculated according to the following equation: WHR (%) = (A0 − At)/A0 × 100%, where A0 and At represented the area of scratch at 0 h and t h, respectively.
Intracellular ROS scavenging. ROS assay kit was used to observe the elimination of intracellular ROS by 5-FuA-Pep-MA. Specifically, HSFbs were seeded in 8-well confocal dishes at a density of 1 × 10^4 cells/well and cultured for 12 h to adhere to the bottom of the dishes. […]
Immunohistochemical, fluorescence and immunofluorescence staining of HS tissues. The ROS levels in HS tissues were measured by the fluorescence and immunofluorescence methods on day
43rd. […] The expression of MMP2 and MMP9 in HS tissues were measured by immunohistochemistry and immunofluorescence methods on day 43rd. […]
RNA sequencing and sample collection. […] RNA integrity was assessed using the RNA Nano 6000 Assay Kit of the Bioanalyzer 2100 system (Agilent Technologies, CA, USA). PCR products were purified (AMPure XP system) and library quality was assessed on the Agilent Bioanalyzer 2100 system. […]
Quality control. Firstly, raw data (raw reads) of fastq format were processed through in-house perl scripts. […]

[5] = ROS-responsive cleavage of prodrug by H2O2 (HPLC); type: physicochemical; conditions: PBS with 10, 50, 100 and 300 μM H2O2, 37 °C, 24-120 h, HPLC peak area, n = 3
Source text: pathological microenvironment of HS tissues determined the drug release rate and […]
Indeed, the size, thickness and duration vary in patients with HS, which could affect the amount of drug needed. […]
fibroblasts/myofibroblasts and the more collagen fibers secreted. Therefore, we could adjust the frequency of treatment for different scar features (size, thickness and […]
3. Figure 3: The ROS response of 5-FuA-Pep-MA prodrug with different concentrations of H2O2 should be shown in both concentration and time.
We have revisited the relevant experiment.
Specifically, 5-FuA-Pep-MA prodrug was incubated with PBS containing different concentrations (10, 50, 100 and 300 μM) of H2O2 at 37 ℃, respectively . 50 μL solutio n was taken out at a pres et time (24, 48, 72, 96 and 120 h), which was analy zed by HPLC. […]
and concentration-dependent (Fig. 3g). […]
For the question3: As described in method:  The peak area obtained from the sample without H2O2 was recorded as A0, while the peak area obtained from the sample with H2O2 was recorded as Ac. The degradation rate was calculated by [(A0-Ac)/A0] À 100% to evaluate the ROS response of peptide prodrug […]
A direct observation of more 5-FU with more H2O2, by HPLC or other methods, either in-vitro or in-vivo, would be more convictive. For example, glucose responsive release of insulin was detected by insulin elisa kit, not the degradation of vesicles […]

Structure (SMILES) | cell viability (NIH/3T3 fibroblasts [1]; 250 μM, 48 h incubation, CCK-8, absorption at 450 nm, mean of n = 4) [%] | scar elevation index (SEI) (rabbit ear HS model) | half-life [2] [min] | inhibitory effect on fibroblasts compared among 5-FuA, 5-FuA-Pep-MA and 5-FuA-Pro-Pro (NIH/3T3 fibroblasts [1]) | wound healing rate (NIH/3T3 fibroblasts [3]) [%] | intracellular ROS fluorescence intensity [4] | ROS-responsive cleavage rate [5]
O=c1[nH]cc(F)c(=O)[nH]1 [5-Fu, 5-Fluorouracil] | 46.9 | 2.2 | 10 to 20 |  |  |  | 
O=C(O)Cn1cc(F)c(=O)[nH]c1=O [5-FuA, 5-Fuorouracil-1-acetic acid] |  |  |  | no significant difference | 48.3 |  | 
C=C(C)C(=O)NCCCC[C@H](NC(=O)[C@@H]1CCCN1C(=O)[C@@H]1CCCN1C(=O)[C@@H]1CCCN1C(=O)Cn1cc(F)c(=O)[nH]c1=O)C(N)=O [5-FuA-Pep-MA] ({Acetyl(5-fluorouracil-1-yl)}-PPPK(Methacryloyl)-NH2) |  |  |  | no significant difference | 51.6 | significantly reduced | positively correlated with H2O2 concentrations and incubation time
O=C(O)[C@@H]1CCCN1C(=O)[C@@H]1CCCN1C(=O)Cn1cc(F)c(=O)[nH]c1=O [5-FuA-Pro-Pro] |  |  |  | no significant difference | 53.2 |  | 

— publication PMC10917775, “Endogenous stimuli-responsive separating microneedles to inhibit hypertrophic scar through remodeling the pathological microenvironment” (Nature Communications, 2024)
